Laboratory results: ChEMBL document CHEMBL1151146, “Starfish Saponins, Part 43. Structures of Two New Sulfated Steroidal Fucofuranosides (Imbricatosides A and B) and Six New Polyhydroxysteroids from the Starfish Dermasterias imbricata” (J Nat Prod, 1990)
Activity calls are given as the source filed them. The rule behind the calls is not given here.

How the values were obtained:
Cladosporium cucumerinum [1] = test: Antimicrobial activity against Cladosporium cucumerinum at 5 ug by TLC-based direct bioautography; type: functional, organism-based
Cladosporium cucumerinum [2] = test: Antimicrobial activity against Cladosporium cucumerinum at 3 ug by TLC-based direct bioautography; type: functional, organism-based
[3] = Inhibition of cell division of fertilized sea urchin eggs; set-up: species or system Egg; details: echinoidea
Cladosporium cucumerinum [4] = test: Antimicrobial activity against Cladosporium cucumerinum at <1 ug by TLC-based direct bioautography; type: functional, organism-based

## C[C@H](CO)C/C=C/[C@@H](C)[C@H]1C[C@@H](O)[C@@H]2[C@]1(C)CC[C@@H]1[C@@]3(C)CC[C@H](O)C[C@@H]3[C@@H](O)C[C@]12O
Cladosporium cucumerinum [1]
  Activity: Active

## CC(C)[C@@H](O)CC[C@@H](C)[C@H]1C[C@@H](O)[C@@H]2[C@]1(C)CC[C@@H]1[C@@]3(C)CC[C@H](O)C[C@@H]3[C@@H](O)C[C@]12O
Cladosporium cucumerinum [2]
  Activity: Active

## CC(C)[C@@H](O)/C=C/[C@@H](C)[C@H]1C[C@@H](O)[C@@H]2[C@]1(C)CC[C@@H]1[C@@]3(C)CC[C@H](O)C[C@@H]3[C@@H](O)C[C@]12O
[3]
  Activity: Active
Cladosporium cucumerinum [4]
  Activity: Active
